Laboratory results published in US20250197373A1, “SMALL MOLECULE COMPOUND OR SALT THEREOF OR SOLVATE OF THEM, GUANINE NUCLEOTIDE-BINDING PROTEIN G(Q) SUBUNIT ALPHA (GNAQ) INHIBITOR CONTAINING THE SAME AND METHOD FOR TREATING AND/OR PREVENTING CANCER” (INDUSTRIAL TECHNOLOGY RESEARCH INSTITUTE, priority 2023, published 2025).

How the values were obtained:
Assay type in all cases: cell-based
GNAQ (WT) = biological target: T1, GNAQ (WT) (Homo sapiens, UniProt P50148); assay: SRE luciferase reporter gene-HEK293 cell line, GNAQ (WT); details: Cell type WT, 20% FBS induction, read-out: GNAQ inhibitory rate; for inhibition at 0.9 µM: analytical concentration 900 nM; for inhibition at 2.7 µM: analytical concentration 2,700 nM; for inhibition at 8.1 µM: analytical concentration 8,100 nM
T1 construct: BPS Bioscience (parental reporter cell line) 60406
T1 sequence (P50148 1-359): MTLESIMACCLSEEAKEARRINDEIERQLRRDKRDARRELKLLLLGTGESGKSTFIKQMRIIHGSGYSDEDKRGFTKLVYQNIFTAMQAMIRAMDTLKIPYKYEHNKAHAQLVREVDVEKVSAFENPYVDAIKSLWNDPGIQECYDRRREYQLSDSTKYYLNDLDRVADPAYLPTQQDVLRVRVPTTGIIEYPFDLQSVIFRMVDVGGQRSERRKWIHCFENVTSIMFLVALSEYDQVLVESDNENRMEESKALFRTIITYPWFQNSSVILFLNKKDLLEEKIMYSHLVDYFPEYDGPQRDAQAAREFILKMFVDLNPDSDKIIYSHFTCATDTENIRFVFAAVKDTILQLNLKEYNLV
Method: 7.5×10^4 SRE-293-GNAQ (WT) or SRE-293-GNAQ (T96S) cell lines were seeded in a 24-well plate and cultured in a carbon dioxide incubator at 37° C. SRE-293-GNAQ (WT) or SRE-293-GNAQ (T96S) cell lines was derived from additionally transfecting SRE Reporter—HEK293 Recombinant Cell Line (ERK Pathway) (Catalog number: 60406; BPS Bioscience) cells with an expression vector separately expressing GNAQ (WT) or GNAQ (T96S), and screening a stable expression cell line by the antibiotic, geneticin (type number 10131035; Thermo Fisher Scientific). GNAQ (WT) or GNAQ (T96) expression vector was derived from gene synthesis and point mutation modification of GenScript company's customized services.
After 48 hours of culture, the culture medium in the 24-well plate was replaced with minimal essential medium (MEM) containing only 0.1% fetal bovine serum (FBS) and the cells were cultured overnight.
After overnight culture, the compound to be tested was added to the cells and reacted for 2 hours, and the medium at this point was still MEM medium containing only 0.1% fetal bovine serum. After reacting with the compound to be tested for 2 hours, fetal bovine serum at a final concentration of 20% was added to the cells and reacted for at least 4 hours. After the reaction, the supernatant was removed. Next, 100 μL of cell lysis reagent CelLytic M Cell Lysis Reagent (Catalog number: C2978; Sigma) was added to the cells and aspirated repeatedly several times to form a cell lysate solution with the cells. The cell lysate solution was collected in a microcentrifuge tube and centrifuged at a high speed of 14,000 rpm for 5 minutes. After that, 30 μL of supernatant was taken out and placed in a 96-well white plate for luminescence analysis, and 30 μL of firefly luminescence analysis reagent (Catalog No. E1501; Promega) diluted 3-fold was added and mixed well, and then luminescence detection was performed with a plate enzyme immunoassay analyzer (ELISA reader) to evaluate the effect of the compound to be tested on MAPK signaling induced by GNAQ through the expression of the firefly luciferase reporter gene.
In order to confirm the effect of the compounds on MAPK signaling induced by GNAQ, the screened SRE-HEK293 cells capable of expressing exogenous GNAQ (WT) and GNAQ (T96S) genes were subjected to overnight serum starvation, and 2 hours before induction with 20% fetal bovine serum, the compound to be tested (one of Compound 1 to Compound 15 prepared above) was added to the cells, and after serum induction, the expression of the firefly luciferase reporter gene was measured. Through the above steps, the inhibition of the compound to be tested on GNAQ expression could be evaluated through the expression of the reporter gene in cells.

MDA-MB-231 = assay: Inhibition of growth of triple-negative breast cancer cells MDA-MB-231 (PrestoBlue); details: Homo sapiens, 168 h, 7 days culture, 2% fetal bovine serum, read-out: Inhibitory activity (evaluated by IC50)
Method: (§1) Triple-negative breast cancer cells, MDA-MB-231 and MDA-MB-231-OE-GNAQ (T96S) (additionally expressing GNAQ (T96S)) were cultured in L-15 medium and in a temperature-controlled incubator without need of additional offer of 5% carbon dioxide.
(§2) 1×10^3 of the cells mentioned above were seeded in a 96-well plate, placed in a temperature-controlled incubator and cultured overnight (at least 16 hours).
(§3) After overnight incubation, the supernatant was removed. Next, after 200 μL of cell culture medium (containing 2% fetal bovine serum) containing different concentrations of test compound was added to each well of the 96-well plate, the 96-well plate was placed in a 37° C. incubator for 7 days further culture. After that, an additional 30 μL of diluted PrestoBlue™ Cell Viability Reagent (Catalog Number: A13261; Thermo Fisher Scientific) (4 μL stock solution and 26 μL culture medium) was added to each well of the 96-well plate and the reaction was continued for further about 1 hour.
(§4) Finally, the fluorescence value at the wavelength of 535/615 nm of each well was read with a plate enzyme immunoassay analyzer, and the inhibitory rate of the compound on triple-negative breast cancer cells were calculated using the following formula.
(§5) Moreover, the half maximal inhibitory concentration (IC50) of the compound on the growth of triple-negative breast cancer cells was calculated with the inhibitory rate of compound on triple-negative breast cancer cells at each concentration through the online half maximal inhibitory concentration (IC50) calculation software, IC50 Calculator, provided by AAT Bioquest company on its website (https://www.aatbio.com/tools/ic50-calculator).
(§6) Finally, the inhibition of the compound on the growth of triple-negative breast cancer cells was evaluated by the calculated half maximal inhibitory concentration (IC50) of the compound on the growth of triple-negative breast cancer cells.
(§7) The inhibition of the compound on the growth of triple-negative breast cancer cells was evaluated by the half maximal inhibitory concentration (IC50) of the compound (one of Compound 1 to Compound 15 prepared above) on the growth of triple-negative breast cancer cells through the human triple-negative breast cancer cell lines MDA-MB-231 and MDA-MB-231-OE-GNAQ (T96S) (additionally expressing GNAQ (T96S)).

[1] = tested on: MDA-MB-231-OE-GNAQ (T96S); assay: Inhibition of growth of triple-negative breast cancer cells MDA-MB-231-OE-GNAQ (T96S) (PrestoBlue); details: Homo sapiens, 168 h, 7 days culture, 2% fetal bovine serum, read-out: Inhibitory activity (evaluated by IC50)
Method: as §1, §2, §3, §4, §5, §6, §7

Row | SMILES | inhibition at 0.9 µM (GNAQ (WT)) [%] | inhibition at 2.7 µM (GNAQ (WT)) [%] | inhibition at 8.1 µM (GNAQ (WT)) [%] | IC50 (MDA-MB-231) [nM] | IC50 [1] [nM]
1 | O=C(Nc1cccc(-c2ccnc(-c3ccnc(Cl)c3)n2)c1)Nc1cc(Cl)nc(Cl)c1 [Compound 1] | < 10 | 10 to 39 | > 70 | 310 to 2500 | 310 to 2500
2 | O=C(Nc1cccc(-c2ccnc(-c3cccc(C(F)(F)F)c3)n2)c1)Nc1cc(Cl)nc(Cl)c1 [Compound 2] | 10 to 39 | 10 to 39 | > 70 | 310 to 2500 | 310 to 2500
3 | N#Cc1cccc(-c2nccc(-c3cccc(NC(=O)Nc4cc(Cl)nc(Cl)c4)c3)n2)c1 [Compound 3] | 10 to 39 | 10 to 39 | > 70 | 310 to 2500 | 310 to 2500
4 | O=C(Nc1cccc(-c2ccnc(-c3ccc(F)c(F)c3)n2)c1)Nc1cc(Cl)nc(Cl)c1 [Compound 4] | < 10 | 10 to 39 | 40 to 70 | 310 to 2500 | 310 to 2500
5 | O=C(Nc1cccc(-c2ccnc(-c3cccc(C(F)(F)F)c3)n2)c1)c1cc(Cl)nc(Cl)c1 [Compound 5] | < 10 | 10 to 39 | < 10 | 310 to 2500 | 310 to 2500
6 | O=C(Nc1ccc(-c2ccnc(-c3ccncc3)n2)cc1)Nc1ccc(Cl)c(C(F)(F)F)c1 [Compound 6] | < 10 | 10 to 39 | 10 to 39 | 2500 to 5000 | 2500 to 5000
7 | O=C(Nc1ccc(-c2ccnc(-c3cccc(C(F)(F)F)c3)n2)cc1)Nc1cc(Cl)nc(Cl)c1 [Compound 7] | < 10 | < 10 | 10 to 39 | 310 to 2500 | 310 to 2500
8 | O=C(Nc1ccc(-c2ccnc(-c3cccc(C(F)(F)F)c3)n2)cc1)Nc1ccc(Cl)c(C(F)(F)F)c1 [Compound 8] | < 10 | < 10 | < 10 | 310 to 2500 | 310 to 2500
9 | O=C(Nc1ccc(-c2cccc(-c3cccc(C(F)(F)F)c3)n2)cc1)Nc1cc(Cl)nc(Cl)c1 [Compound 9] | 10 to 39 | 10 to 39 | > 70 | 310 to 2500 | 310 to 2500
10 | FC(F)(F)c1cccc(-c2cccc(-c3ccc(NC(=S)Nc4cc(Cl)nc(Cl)c4)cc3)n2)c1 [Compound 10] | 10 to 39 | 40 to 70 | > 70 | 310 to 2500 | 310 to 2500
11 | N#Cc1cccc(-c2cccc(-c3ccc(NC(=S)Nc4cc(Cl)nc(Cl)c4)cc3)n2)c1 [Compound 11] | 10 to 39 | 40 to 70 | > 70 | 310 to 2500 | 310 to 2500
12 | O=C(Nc1ccc(-c2cccc(-c3ccncc3)n2)cc1)Nc1ccc(Cl)c(C(F)(F)F)c1 [Compound 12] | 10 to 39 | 10 to 39 | 40 to 70 | 310 to 2500 | 310 to 2500
13 | O=C(Nc1cccc(-c2cccc(-c3ccncc3)n2)c1)Nc1cc(Cl)nc(Cl)c1 [Compound 13] | 10 to 39 | 40 to 70 | > 70 | 310 to 2500 | 310 to 2500
14 | O=C(Nc1cccc(-c2cc(-c3cccc(C(F)(F)F)c3)ncn2)c1)Nc1cc(Cl)nc(Cl)c1 [Compound 14] | < 10 | 10 to 39 | 40 to 70 | 310 to 2500 | 310 to 2500
15 | O=C(Nc1ccc(-c2nc(-c3ccccc3)ncc2Cl)cc1)Nc1cc(Cl)nc(Cl)c1 [Compound 15] | < 10 | 10 to 39 | > 70 | 310 to 2500 | 310 to 2500
